This is an account of results in ChEMBL document CHEMBL5107972 (RSC Med Chem, 2022).

Common to all, as to format: functional
In experiment [1] the test system is Mycobacterium tuberculosis. Nature of the experiment: Antitubercular activity against clinical isolate ethambutol-resistant Mycobacterium tuberculosis ATCC 35837 assessed as inhibition of bacterial growth incubated for 7 days by Presto blue resazurin microtiter plate assay. As to conditions: ATCC 35837, 168 h, time 7 day. In general terms: Resazurin is reduced to fluorescent resorufin, in cell work by metabolically active cells.

For experiment [2], the system named is Mycobacterium tuberculosis. In words: Antitubercular activity against clinical isolate rifampicin-resistant Mycobacterium tuberculosis ATCC 35838 assessed as inhibition of bacterial growth incubated for 7 days by Presto blue resazurin microtiter plate assay. The note with it: ATCC 35838, 168 h, time 7 day.
The test system of experiment [3] is Mycobacterium tuberculosis. Nature of the experiment: Antitubercular activity against clinical isolate streptomycin-resistant Mycobacterium tuberculosis ATCC 35820 assessed as inhibition of bacterial growth incubated for 7 days by Presto blue resazurin microtiter plate assay. The note with it: ATCC 35820, 168 h, time 7 day.
Experiment [4] concerns Mycobacterium tuberculosis. In words: Antitubercular activity against clinical isolate isoniazid-resistant Mycobacterium tuberculosis ATCC 35822 assessed as inhibition of bacterial growth incubated for 7 days by Presto blue resazurin microtiter plate assay. The note with it: ATCC 35822, 168 h, time 7 day.

Structures are written as SMILES. ≈ marks a conversion by molar mass, not a printed value.

By MIC is commonly meant the least concentration at which growth counts as inhibited. In the case of `NNC(=O)c1ccncc1` [ISONIAZID], the MIC in experiment [1] is 0.03 µg/mL (≈ 0.219 µM); in experiment [2], 0.03 µg/mL (≈ 0.219 µM); in experiment [3], 0.03 µg/mL (≈ 0.219 µM); in experiment [4], above 64 µg/mL.

In the case of `CC[C@@H](CO)NCCN[C@@H](CC)CO` [ETHAMBUTOL], the MIC in experiment [1] was 32 µg/mL (≈ 157 µM); in experiment [2] it was 2 µg/mL (≈ 9.79 µM); in experiment [3] it was 2 µg/mL (≈ 9.79 µM); in experiment [4], 4 µg/mL (≈ 19.6 µM).

Regarding `CO[C@H]1/C=C/O[C@@]2(C)Oc3c(C)c(O)c4c(O)c(c(/C=N/N5CCN(C)CC5)c(O)c4c3C2=O)NC(=O)/C(C)=C\C=C\[C@H](C)[C@H](O)[C@@H](C)[C@@H](O)[C@@H](C)[C@H](OC(C)=O)[C@@H]1C` [RIFAMPIN], the minimum inhibitory concentration (MIC) in experiment [1] is 0.03 µg/mL (≈ 0.0365 µM); in experiment [2], 64 µg/mL (≈ 77.8 µM); in experiment [3] it was 0.03 µg/mL (≈ 0.0365 µM); in experiment [4], 0.03 µg/mL (≈ 0.0365 µM).

Turning to `CN[C@@H]1[C@H](O[C@H]2[C@H](O[C@H]3[C@H](O)[C@@H](O)[C@H](N=C(N)N)[C@@H](O)[C@@H]3N=C(N)N)O[C@@H](C)[C@]2(O)C=O)O[C@@H](CO)[C@H](O)[C@H]1O` [STREPTOMYCIN], the minimal inhibitory concentration (MIC) was 1 µg/mL (≈ 1.72 µM) in experiment [1], 1 µg/mL (≈ 1.72 µM) in experiment [2], above 64 µg/mL in experiment [3] and 1 µg/mL (≈ 1.72 µM) in experiment [4].
